In the supplement of paper PMC10307832:

Tests used:
Assay in all cases: relative viability (nuclei count vs DMSO), 5 days (fraction); higher = more cells survive
A-427 = system: A-427
Outline: (§1)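 Lung cancer cell lines were pin-tool dosed in 1536-well plates on the day after seeding, with either a lone drug or a fixed anchor-drug dose plus five library-drug doses (not always all listed) in √10 steps. Nuclei were counted on 4× images after 5 days. Relative viability is the ratio of treated-well to vehicle-well nuclei counts, with each value a median of duplicate plates.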

HCC-15 = system: HCC-15
Outline: as §1

NCI-H2347 = system: NCI-H2347
Outline: as §1

PC-3 [JPC-3] = system: PC-3 [JPC-3]
Outline: as §1

NCI-H1975 = system: NCI-H1975
Outline: as §1

LC-2-ad = system: LC-2-ad
Outline: as §1

LXF-289 = system: LXF-289
Outline: as §1

HCC-78 = system: HCC-78
Outline: as §1

NCI-H1734 = system: NCI-H1734
Outline: as §1

NCI-H522 = system: NCI-H522
Outline: as §1

SW 1573 = system: SW 1573
Outline: as §1

NCI-H1792 = system: NCI-H1792
Outline: as §1

NCI-H1755 = system: NCI-H1755
Outline: as §1

NCI-H2126 = system: NCI-H2126
Outline: as §1

NCI-H2228 = system: NCI-H2228
Outline: as §1

NCI-H1915 = system: NCI-H1915
Outline: as §1

RERF-LC-KJ = system: RERF-LC-KJ
Outline: as §1

NCI-H647 = system: NCI-H647
Outline: as §1

NCI-H2342 = system: NCI-H2342
Outline: as §1

HOP-62 = system: HOP-62
Outline: as §1

SK-LU-1 = system: SK-LU-1
Outline: as §1

NCI-H358 = system: NCI-H358
Outline: as §1

## O=c1cc(N2CCOCC2)oc2c(-c3cccc4c3sc3ccccc34)cccc12 + CC(=O)Nc1cccc(-n2c(=O)n(C3CC3)c(=O)c3c(Nc4ccc(I)cc4F)n(C)c(=O)c(C)c32)c1 [Trametinib] (partner 0.02 µM)
A-427; first compound 0.01 µM
  relative viability: 0.869
A-427; first compound 0.03162 µM
  relative viability: 0.775
A-427; first compound 0.1 µM
  relative viability: 0.747
A-427; first compound 0.3162 µM
  relative viability: 0.812
A-427; first compound 1 µM
  relative viability: 0.695
HCC-15; first compound 0.01 µM
  relative viability: 0.384
HCC-15; first compound 0.03162 µM
  relative viability: 0.388
HCC-15; first compound 0.1 µM
  relative viability: 0.288
HCC-15; first compound 0.3162 µM
  relative viability: 0.368
HCC-15; first compound 1 µM
  relative viability: 0.364
NCI-H2347; first compound 0.01 µM
  relative viability: 0.263
NCI-H2347; first compound 0.03162 µM
  relative viability: 0.287
NCI-H2347; first compound 0.1 µM
  relative viability: 0.269
NCI-H2347; first compound 0.3162 µM
  relative viability: 0.309
NCI-H2347; first compound 1 µM
  relative viability: 0.229
PC-3 [JPC-3]; first compound 0.01 µM
  relative viability: 0.623
PC-3 [JPC-3]; first compound 0.03162 µM
  relative viability: 0.675
PC-3 [JPC-3]; first compound 0.1 µM
  relative viability: 0.649
PC-3 [JPC-3]; first compound 0.3162 µM
  relative viability: 0.729
PC-3 [JPC-3]; first compound 1 µM
  relative viability: 0.655
NCI-H1975; first compound 0.01 µM
  relative viability: 0.434
NCI-H1975; first compound 0.03162 µM
  relative viability: 0.337
NCI-H1975; first compound 0.1 µM
  relative viability: 0.401
NCI-H1975; first compound 0.3162 µM
  relative viability: 0.361
NCI-H1975; first compound 1 µM
  relative viability: 0.293
LC-2-ad; first compound 0.01 µM
  relative viability: 0.982
LC-2-ad; first compound 0.03162 µM
  relative viability: 0.877
LC-2-ad; first compound 0.1 µM
  relative viability: 0.965
LC-2-ad; first compound 0.3162 µM
  relative viability: 0.899
LC-2-ad; first compound 1 µM
  relative viability: 0.918
LXF-289; first compound 0.01 µM
  relative viability: 0.672
LXF-289; first compound 0.03162 µM
  relative viability: 0.629
LXF-289; first compound 0.1 µM
  relative viability: 0.662
LXF-289; first compound 0.3162 µM
  relative viability: 0.673
LXF-289; first compound 1 µM
  relative viability: 0.695
HCC-78; first compound 0.01 µM
  relative viability: 0.801
HCC-78; first compound 0.03162 µM
  relative viability: 0.699
HCC-78; first compound 0.1 µM
  relative viability: 0.899
HCC-78; first compound 0.3162 µM
  relative viability: 0.806
HCC-78; first compound 1 µM
  relative viability: 0.651
NCI-H1734; first compound 0.01 µM
  relative viability: 0.772
NCI-H1734; first compound 0.03162 µM
  relative viability: 0.747
NCI-H1734; first compound 0.1 µM
  relative viability: 0.637
NCI-H1734; first compound 0.3162 µM
  relative viability: 0.69
NCI-H1734; first compound 1 µM
  relative viability: 0.758
NCI-H522; first compound 0.01 µM
  relative viability: 0.733
NCI-H522; first compound 0.03162 µM
  relative viability: 0.86
NCI-H522; first compound 0.1 µM
  relative viability: 0.793
NCI-H522; first compound 0.3162 µM
  relative viability: 0.684
NCI-H522; first compound 1 µM
  relative viability: 0.963
SW 1573; first compound 0.01 µM
  relative viability: 0.501
SW 1573; first compound 0.03162 µM
  relative viability: 0.594
SW 1573; first compound 0.1 µM
  relative viability: 0.585
SW 1573; first compound 0.3162 µM
  relative viability: 0.603
SW 1573; first compound 1 µM
  relative viability: 0.501
NCI-H1792; first compound 0.01 µM
  relative viability: 0.322
NCI-H1792; first compound 0.03162 µM
  relative viability: 0.445
NCI-H1792; first compound 0.3162 µM
  relative viability: 0.383
NCI-H1792; first compound 1 µM
  relative viability: 0.458
NCI-H1755; first compound 0.01 µM
  relative viability: 0.807
NCI-H1755; first compound 0.03162 µM
  relative viability: 0.83
NCI-H1755; first compound 0.1 µM
  relative viability: 0.81
NCI-H1755; first compound 0.3162 µM
  relative viability: 0.741
NCI-H1755; first compound 1 µM
  relative viability: 0.819
NCI-H2126; first compound 0.01 µM
  relative viability: 0.543
NCI-H2126; first compound 0.03162 µM
  relative viability: 0.52
NCI-H2126; first compound 0.1 µM
  relative viability: 0.54
NCI-H2126; first compound 0.3162 µM
  relative viability: 0.567
NCI-H2126; first compound 1 µM
  relative viability: 0.569
NCI-H2228; first compound 0.01 µM
  relative viability: 0.723
NCI-H2228; first compound 0.03162 µM
  relative viability: 0.424
NCI-H2228; first compound 0.1 µM
  relative viability: 0.43
NCI-H2228; first compound 0.3162 µM
  relative viability: 0.557
NCI-H2228; first compound 1 µM
  relative viability: 0.534
NCI-H1915; first compound 0.01 µM
  relative viability: 0.32
NCI-H1915; first compound 0.03162 µM
  relative viability: 0.32
NCI-H1915; first compound 0.1 µM
  relative viability: 0.299
NCI-H1915; first compound 0.3162 µM
  relative viability: 0.3
NCI-H1915; first compound 1 µM
  relative viability: 0.3
RERF-LC-KJ; first compound 0.01 µM
  relative viability: 0.824
RERF-LC-KJ; first compound 0.03162 µM
  relative viability: 0.874
RERF-LC-KJ; first compound 0.1 µM
  relative viability: 0.936
RERF-LC-KJ; first compound 0.3162 µM
  relative viability: 0.836
RERF-LC-KJ; first compound 1 µM
  relative viability: 0.798
NCI-H647; first compound 0.01 µM
  relative viability: 0.503
NCI-H647; first compound 0.03162 µM
  relative viability: 0.489
NCI-H647; first compound 0.1 µM
  relative viability: 0.487
NCI-H647; first compound 0.3162 µM
  relative viability: 0.449
NCI-H647; first compound 1 µM
  relative viability: 0.472
NCI-H2342; first compound 0.01 µM
  relative viability: 0.728
NCI-H2342; first compound 0.03162 µM
  relative viability: 0.874
NCI-H2342; first compound 0.1 µM
  relative viability: 0.928
NCI-H2342; first compound 0.3162 µM
  relative viability: 0.962
NCI-H2342; first compound 1 µM
  relative viability: 0.833
HOP-62; first compound 0.01 µM
  relative viability: 0.379
HOP-62; first compound 0.03162 µM
  relative viability: 0.384
HOP-62; first compound 0.1 µM
  relative viability: 0.358
HOP-62; first compound 0.3162 µM
  relative viability: 0.385
HOP-62; first compound 1 µM
  relative viability: 0.373
SK-LU-1; first compound 0.01 µM
  relative viability: 0.521
SK-LU-1; first compound 0.03162 µM
  relative viability: 0.453
SK-LU-1; first compound 0.1 µM
  relative viability: 0.505
SK-LU-1; first compound 0.3162 µM
  relative viability: 0.443
SK-LU-1; first compound 1 µM
  relative viability: 0.5
NCI-H358; first compound 0.01 µM
  relative viability: 0.133
NCI-H358; first compound 0.03162 µM
  relative viability: 0.14
NCI-H358; first compound 0.1 µM
  relative viability: 0.115
NCI-H358; first compound 0.3162 µM
  relative viability: 0.128
NCI-H358; first compound 1 µM
  relative viability: 0.165
